Experimental data taken from patent US20170209445A1, “KINASE INHIBITORS” (Respivert Limited, priority 2014, published 2017).

System: PBMCs
Experiment: LPS-induced IL-8 release in PBMC cells
Format: cell-based
Conditions: Homo sapiens, LPS-stimulated PBMCs, read-out: IC50 Values for Inhibition of Cytokine Release PBMCs IL-8
Description: Peripheral blood mononuclear cells (PBMCs) from healthy subjects are separated from whole blood using a density gradient (Lymphoprep, Axis-Shield Healthcare). The PBMCs are seeded in 96 well plates and treated with compounds at the desired concentration for 2 hours before addition of 1 ng/mL LPS (Escherichia Coli 0111:B4 from Sigma Aldrich) for 24 hours under normal tissue culture conditions (37° C., 5% CO2). The supernatant is harvested for determination of IL-8 and TNFα concentrations by sandwich ELISA (Duo-set, R&D systems) and read on the fluorescence microplate reader (Varioskan® Flash, ThermoFisher Scientific).

SMILES | IC50 [nM]
COc1cc(Nc2ncc3cc(-c4cc(C(=O)Nc5cc(C(C)(C)C)cc(NS(C)(=O)=O)c5OC)ccc4C)ccc3n2)ccc1C(=O)NC1CCS(=O)(=O)CC1 [14(an), 4-((6-(5-((5-(tert-Butyl)-2-methoxy-3-(methylsulfonamido)phenyl)carbamoyl)-2-methylphenyl)quinazolin-2-yl)amino)-N-(1,1-dioxidotetrahydro-2H-thiopyran-4-yl)-2-methoxybenzamide] | 12.3
COc1c(NC(=O)c2ccc(C)c(-c3ccc4nc(Nc5cc(C(=O)NCCN6CCOCC6)cc(C(F)(F)F)c5)ncc4c3)c2)cc(C(C)(C)C)cc1NS(C)(=O)=O [14(u), N-(5-(tert-Butyl)-2-methoxy-3-(methylsulfonamido)phenyl)-4-methyl-3-(2-((3-((2-morpholinoethyl)carbamoyl)-5-(trifluoromethyl)phenyl)amino)quinazolin-6-yl)benzamide] | 20.2
COc1cc(Nc2ncc3cc(-c4cc(C(=O)Nc5cc(C(C)(C)C)cc(NS(C)(=O)=O)c5OC)ccc4C)ccc3n2)cc(C(=O)O)c1 [14(o), 3-((6-(5-((5-(tert-Butyl)-2-methoxy-3-(methylsulfonamido)phenyl)carbamoyl)-2-methylphenyl)quinazolin-2-yl)amino)-5-methoxybenzoic acid] | 28.4
COc1cc(Nc2ncc3cc(-c4cc(C(=O)Nc5cc(C(C)(C)C)cc(NS(C)(=O)=O)c5OC)ccc4C)ccc3n2)ccc1C(=O)NCCN1CCN(CCO)CC1 [Example 13] | 6.7
COc1cc(Nc2ncc3cc(-c4cc(C(=O)Nc5cc(C(C)(C)C)cc(NS(C)(=O)=O)c5OC)ccc4C)ccc3n2)ccc1C(=O)NCC1CCN(C)CC1 [14(ai), 4-((6-(5-((5-(tert-Butyl)-2-methoxy-3-(methylsulfonamido)phenyl)carbamoyl)-2-methylphenyl)quinazolin-2-yl)amino)-2-methoxy-N-((1-methylpiperidin-4-yl)methyl)benzamide] | 7.9
COc1cc(Nc2ncc3cc(-c4cc(C(=O)Nc5cc(C(C)(C)C)cc(NS(C)(=O)=O)c5OC)ccc4C)ccc3n2)ccc1C(=O)NCCC1CCN(C)CC1 [14(aa), 4-((6-(5-((5-(tert-Butyl)-2-methoxy-3-(methylsulfonamido)phenyl)carbamoyl)-2-methyl-phenyl)quinazolin-2-yl)amino)-2-methoxy-N-(2-(1-methylpiperidin-4-yl)ethyl)benzamide] | 9.5
COc1cc(Nc2ncc3cc(-c4cc(C(=O)Nc5cc(C(C)(C)C)cc(NS(C)(=O)=O)c5OC)ccc4C)ccc3n2)ccc1C(=O)NCCC1(O)CCN(C)CC1 [14(aj), 4-((6-(5-((5-(tert-Butyl)-2-methoxy-3-(methylsulfonamido)phenyl)carbamoyl)-2-methylphenyl)quinazolin-2-yl)amino)-N-(2-(4-hydroxy-1-methylpiperidin-4-yl)ethyl)-2-methoxybenzamide] | 9.3
COc1cc(Nc2ncc3cc(-c4cc(C(=O)Nc5cc(C(C)(C)C)cc(NS(C)(=O)=O)c5OC)ccc4C)ccc3n2)cc(S(=O)(=O)N(C)CCCN2CCOCC2)c1 [14(e), N-(5-(tert-Butyl)-2-methoxy-3-(methylsulfonamido)phenyl)-3-(2-((3-methoxy-5-(N-methyl-N-(3-morpholinopropyl)sulfamoyl)phenyl)amino)quinazolin-6-yl)-4-methylbenzamide] | 20.6
